Values after ≈ are worked out from the molar mass of the structure shown. Like-named read-outs stand apart in the source and are kept apart here.

For series [1], the target named is Mtb InhA (enoyl acyl carrier protein reductase) (Mycobacterium tuberculosis, UniProt P9WGR1). The experiment in a line: Mtb InhA enzyme inhibition assay (fluorescence based). It counts as biochemical. The method, then: Mtb InhA enzyme inhibition assay (Fluorescence based assay)
The compounds were dissolved in 100% dimethyl sulfoxide (DMSO). […] The 50μL enzyme reaction contained PIPES- 30 mM, pH 7.5, NaCl - 50 mM, 0.005% Brij-35, DTT - 2mM, and EDTA- 0.1mM. The enzyme reaction was started by the addition of […] of dodecyl CoA synthesized in-house and the depletion of NADH was followed by measuring the fluorescence of NADH kinetically in the reaction for 30min at excitation at 340nm and emission at 420nm using Tecan Saffire II reader. The concentration at which 50% inhibition in enzyme activity was observed was reported as the IC50.

The test system of a further series is Mtb H37Rv strain. As to the kind of experiment: Mtb H37Rv assay, resazurin microtiter-based assay (REMA). Format: cell-based, Mycobacterium tuberculosis. Conditions: REMA plate method, 90% inhibition with respect to growth control.
The mark [2] stands for this setting: read-out: InhA IC50, InhA 1.25 nM, 0.050 mM NADH, NADH fluorescence.

Chain of Mtb InhA (enoyl acyl carrier protein reductase) (P9WGR1 whole entry, looked up): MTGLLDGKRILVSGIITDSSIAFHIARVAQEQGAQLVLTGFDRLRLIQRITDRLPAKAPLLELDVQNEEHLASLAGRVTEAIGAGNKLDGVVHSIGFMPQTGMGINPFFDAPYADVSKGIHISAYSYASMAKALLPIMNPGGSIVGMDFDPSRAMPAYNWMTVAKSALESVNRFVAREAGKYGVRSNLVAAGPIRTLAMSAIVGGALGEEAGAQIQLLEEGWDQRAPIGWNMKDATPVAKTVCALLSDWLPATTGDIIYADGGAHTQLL

For the compound `Nn1c(-c2ccncc2)nn(CC(=O)Nc2ccccc2)c1=S` [Compound 6a, 2-(4-Amino-3-pyridin-4-yl-5-thioxo-4,5-dihydro-[1,2,4]triazol-1-yl)-N-phenyl acetamide], the melting point lay within 242 to 244 °C. Further, the IC50 in series [1] (setting [2]) worked out at 0.68 µM. Also, 12.5 µM (≈ 4.08 µg/mL) was the least that counted as inhibitory with Mtb H37Rv strain (Mycobacterium tuberculosis) (MIC).
`Cc1ccc(NC(=O)Cn2nc(-c3ccncc3)n(N)c2=S)cc1` [Compound 6b, 2-(4-amino-3-(pyridin-4-yl)-5-thioxo-4,5-dihydro-1H-1,2,4-triazol-1-yl)-N-(p-tolyl)acetamide] gave a melting point of 237 to 238 °C. Also, 0.09 µM corresponded to half-maximal inhibition in series [1] (IC50). In the series on Mtb H37Rv strain (Mycobacterium tuberculosis), the lowest concentration to inhibit growth (MIC) was 0.19 µM (≈ 0.0647 µg/mL). The compound further returned an MIC against Mtb H37Rv strain of 0.19 µM (≈ 0.0647 µg/mL).
Turning to `Nn1c(-c2ccncc2)nn(CC(=O)Nc2ccc(Br)cc2F)c1=S` [Compound 6c, 2-(4-amino-3-(pyridin-4-yl)-5-thioxo-4,5-dihydro-1H-1,2,4-triazol-1-yl)-N-(4-bromo-2-fluorophenyl)acetamide], the melting point fell in the range of 276 to 278 °C. In series [1], this compound registered a half-maximal inhibitory concentration (IC50) of 6.15 µM. For the same compound, the MIC with Mtb H37Rv strain (Mycobacterium tuberculosis) was found to be 3.12 µM (≈ 1.32 µg/mL).
`COc1ccc(NC(=O)Cn2nc(-c3ccncc3)n(N)c2=S)cc1` [Compound 6d, 2-(4-Amino-3-(pyridin-4-yl)-5-thioxo-4,5-dihydro-1H[1,2,4]triazol-1-yl)-N-(4-methoxyphenyl) acetamide] yielded a melting point of 256 to 258 °C. Moreover, in series [1] (setting [2]), the IC50 stood at 10.8 µM. Besides, in the series on Mtb H37Rv strain (Mycobacterium tuberculosis), 25 µM (≈ 8.91 µg/mL) was the least that counted as inhibitory (MIC).
In the same order, the values of `Nn1c(-c2ccncc2)nn(CC(=O)Nc2cccc(C(F)(F)F)c2)c1=S` [Compound 6e, 2-(4-Amino-3-(pyridin-4-yl)-5-thioxo-4,5-dihydro-1H[1,2,4]triazol-1-yl)-N-(3-trifluoromethylphenyl) acetamide] are 242 to 244 °C, 5.95 µM and 12.5 µM (≈ 4.93 µg/mL).
For the compound `Nn1c(-c2ccncc2)nn(CC(=O)Nc2ccc(Cl)cc2)c1=S` [Compound 6f, 2-(4-Amino-(3-pyridin-4-yl)-5-thioxo-4,5-dihydro-1H[1,2,4]triazol-1-yl)-N-(4-chlorophenyl) acetamide], the melting point was in the range of 218 to 220 °C. The IC50 in series [1] (setting [2]) came to 1.2 µM. Also, the MIC against Mtb H37Rv strain (Mycobacterium tuberculosis) amounted to 12.5 µM (≈ 4.51 µg/mL).
In the same order, the values of `Cc1ccc(NC(=O)Cn2nc(-c3ccncc3)n(N)c2=S)cc1C` [Compound 6g, 2-(4-Amino-(3-pyridin-4-yl)-5-thioxo-4,5-dihydro-1H[1,2,4]triazol-1-yl)-N-(3,4-dimethylphenyl) acetamide] are 242 to 244 °C, 0.19 µM and 0.39 µM (≈ 0.138 µg/mL).
In the same order, the values of `Cc1ccc(NC(=O)Cn2nc(-c3ccncc3)n(N)c2=S)cc1Cl` [Compound 6h, 2-(4-Amino-(3-pyridin-4-yl)-5-thioxo-4,5-dihydro-1H[1,2,4]triazol-1-yl)-N-(3-chloro-4-methylphenyl) acetamide] are 214 to 216 °C, 0.34 µM and 6.25 µM (≈ 2.34 µg/mL).
In turn, `Cc1cccc(NC(=O)Cn2nc(-c3ccncc3)n(N)c2=S)c1` [Compound 6i, 2-(4-Amino-(3-pyridin-4-yl)-5-thioxo-4,5-dihydro-1H[1,2,4]triazol-1-yl)-N-(3-methylphenyl)acetamide] returned a melting point of 225 to 227 °C. The compound also gave a half-inhibitory concentration (IC50) in series [1] of 0.12 µM. Also, in the series with Mtb H37Rv strain (Mycobacterium tuberculosis), inhibition of growth (MIC) required 0.39 µM (≈ 0.133 µg/mL).
The compound `Nn1c(-c2ccncc2)nn(CC(=O)Nc2cccc(Cl)c2)c1=S` [Compound 6j, 2-(4-Amino-(3-pyridin-4-yl)-5-thioxo-4,5-dihydro-1H[1,2,4]triazol-1-yl)-N-(3-chlorophenyl) acetamide] gave a melting point of 220 to 222 °C. Also, the concentration for half-maximal inhibition (IC50) in series [1] (setting [2]) worked out at 3.1 µM. This compound also came in with an MIC against Mtb H37Rv strain (Mycobacterium tuberculosis) of 6.25 µM (≈ 2.26 µg/mL).
Turning to `Nn1c(-c2ccncc2)nn(CC(=O)Nc2cc(C(F)(F)F)ccc2Cl)c1=S` [Compound 6k, 2-(4-Amino-(3-pyridin-4-yl)-5-thioxo-4,5-dihydro-1H[1,2,4]triazol-1-yl)-N-(2-chloro-5-trifluoromethylphenyl) acetamide], the melting point was in the range of 184 to 186 °C.
With `COc1cccc(NC(=O)Cn2nc(-c3ccncc3)n(N)c2=S)c1` [Compound 6l, 2-(4-Amino-(3-pyridin-4-yl)-5-thioxo-4,5-dihydro-1H[1,2,4]triazol-1-yl)-N-(3-methoxyphenyl) acetamide], the melting point lay in the range of 222 to 224 °C.
Same read-out and setting: to `Nn1c(-c2ccncc2)nn(CC(=O)Nc2ccc(F)cc2)c1=S` [Compound 6m, 2-(4-Amino-(3-pyridin-4-yl)-5-thioxo-4,5-dihydro-1H[1,2,4]triazol-1-yl)-N-(4-fluorophenyl) acetamide] belongs 227 to 229 °C; to `Nn1c(-c2ccncc2)nn(CC(=O)Nc2ccc(C(F)(F)F)cc2)c1=S` [Compound 6n, 2-(4-Amino-(3-pyridin-4-yl)-5-thioxo-4,5-dihydro-1H[1,2,4]triazol-1-yl)-N-(4-trifluoromethylphenyl) acetamide], 227 to 229 °C.
The compound `Nn1c(-c2ccncc2)nn(CC(=O)Nc2ccccn2)c1=S` [Compound 6o, 2-(4-Amino-(3-pyridin-4-yl)-5-thioxo-4,5-dihydro-1H[1,2,4]triazol-1-yl)-N-pyridin-2-yl acetamide] displayed a melting point of 212 to 214 °C. Further, the IC50 in series [1] (setting [2]) was determined as 76 µM. Moreover, it took 100 µM (≈ 32.7 µg/mL) to inhibit growth in the series on Mtb H37Rv strain (Mycobacterium tuberculosis) (MIC).
In the same order, the values of `Cc1cccc(NC(=O)Cn2nc(-c3ccncc3)n(N)c2=S)n1` [Compound 6p, 2-(4-Amino-(3-pyridin-4-yl)-5-thioxo-4,5-dihydro-1H[1,2,4]triazol-1-yl)-N-(6-methylpyridin-2-yl) acetamide] are 230 to 232 °C, 86 µM and 100 µM (≈ 34.1 µg/mL).
`Cc1ccnc(NC(=O)Cn2nc(-c3ccncc3)n(N)c2=S)c1` [Compound 6q, 2-(4-Amino-(3-pyridin-4-yl)-5-thioxo-4,5-dihydro-1H[1,2,4]triazol-1-yl)-N-(4-methylpyridin-2-yl) acetamide]: the melting point lay within 217 to 219 °C.
On the same count and under the same terms, to `Nn1c(-c2ccncc2)nn(CC(=O)Nc2ncccn2)c1=S` [Compound 6r, 2-(4-Amino-(3-pyridin-4-yl)-5-thioxo-4,5-dihydro-1H[1,2,4]triazol-1-yl)-N-pyrimidin-2-yl acetamide] belongs 205 to 207 °C; to `Cc1cc(NC(=O)Cn2nc(-c3ccncc3)n(N)c2=S)no1` [Compound 6s, 2-(4-Amino-(3-pyridin-4-yl)-5-thioxo-4,5-dihydro-1H[1,2,4]triazol-1-yl)-N-(5-methylisoxazol-3-yl) acetamide], 242 to 244 °C; to `Cc1cccc2sc(NC(=O)Cn3nc(-c4ccncc4)n(N)c3=S)nc12` [Compound 6t, 2-(4-Amino-(3-pyridin-4-yl)-5-thioxo-4,5-dihydro-1H[1,2,4]triazol-1-yl)-N-(4-methylbenzothiazol-3-yl) acetamide], 243 to 245 °C.
Still for that read-out and setting: in the case of `Nn1c(-c2ccncc2)nn(CC(=O)Nc2nccs2)c1=S` [Compound 6u, 2-(4-Amino-(3-pyridin-4-yl)-5-thioxo-4,5-dihydro-1H[1,2,4]triazol-1-yl)-N-thiazol-2-yl acetamide] it was 253 to 255 °C; in that of `Cc1cnc(NC(=O)Cn2nc(-c3ccncc3)n(N)c2=S)s1` [Compound 6v, 2-(4-Amino-(3-pyridin-4-yl)-5-thioxo-4,5-dihydro-1H[1,2,4]triazol-1-yl)-N-(5-methylthiazol-2-yl) acetamide], 250 to 252 °C.
Same read-out and setting: to `O=C(Cn1nc(-c2ccncc2)oc1=S)Nc1ccccn1` [Compound 7a, 2-(5-pyridin-4-yl-2-thioxo-[1,3,4]oxadiazol-3-yl)-N-pyridin-2-yl acetamide] belongs 216 to 218 °C.
For `Cc1cc(NC(=O)Cn2nc(-c3ccncc3)oc2=S)no1` [Compound 7b, N-(5-methylisoxazol-3-yl)-2-(5-(pyridin-4-yl)-2-thioxo-1,3,4-oxadiazol-3(2H)-yl)acetamide], the melting point is 232 to 234 °C. Besides, the IC50 in series [1] came out at 24 µM. Further, it took 50 µM (≈ 15.9 µg/mL) to inhibit growth with Mtb H37Rv strain (Mycobacterium tuberculosis) (MIC).
`O=C(Cn1nc(-c2ccncc2)oc1=S)Nc1nccs1` [Compound 7c, 2-(5-pyridin-4-yl-2-thioxo-[1,3,4]oxadiazol-3-yl)-N-thiazol-2-yl acetamide] yielded a melting point of 244 to 246 °C.
On to `Cc1cnc(NC(=O)Cn2nc(-c3ccncc3)oc2=S)s1` [Compound 7d, N-(5-methylthiazol-2-yl)-2-(5-(pyridin-4-yl)-2-thioxo-1,3,4-oxadiazol-3(2H)-yl)acetamide], for which the melting point fell in the range of 236 to 238 °C. The compound further showed an IC50 in series [1] of 67 µM. In addition, 100 µM (≈ 33.3 µg/mL) was the least that counted as inhibitory in the series on Mtb H37Rv strain (Mycobacterium tuberculosis) (MIC).
The corresponding values for `O=C(Cn1nc(-c2ccncc2)oc1=S)Nc1ncc([N+](=O)[O-])s1` [Compound 7e, N-(5-nitrothiazol-2-yl)-2-(5-(pyridin-4-yl)-2-thioxo-1,3,4-oxadiazol-3(2H)-yl)acetamide] are 254 to 256 °C, 82 µM and 100 µM (≈ 36.4 µg/mL).
`O=C(Cn1nc(-c2ccncc2)oc1=S)Nc1nc2ccccc2s1` [Compound 7f, 2-(5-pyridin-4-yl-2-thioxo-[1,3,4]oxadiazol-3-yl)-N-benzothiazol-2-yl acetamide] came in with a melting point of 206 to 208 °C.
For `NNC(=O)c1ccncc1` [INH, isoniazid, reference compound], the MIC in the series on Mtb H37Rv strain (Mycobacterium tuberculosis) was 0.05 µM (≈ 0.00686 µg/mL).

(Values after PMC7059037, “Development of 1,2,4-Triazole-5-Thione Derivatives as Potential Inhibitors of Enoyl Acyl Carrier Protein Reductase (InhA) in Tuberculosis” (Iranian Journal of Pharmaceutical Research : IJPR, 2019).)
